# Patent US7029879B1, “Iodine uptake restoration in thyroid cancer” (University of Kentucky Research Foundation, priority 1999, dated 2006)
# Key:
# hNIS mRNA = hNIS mRNA re-expression by RT-PCR in treated human thyroid cell lines; type: cell-based; details: for hNIS mRNA expression despite treatment: MRO87, WRO82 and KAT-7 cell lines
# Experimental: (§1) Cell lines, for evaluation of iodide-uptake and hNIS expression, were grown in phenol-red-free RPMI 1640 with 5% fetal bovine serum (FBS), 100 nM sodium selenite and 0.1 nM bovine TSH (basal medium) (20). They were plated at a density of 3–5×10^4 cells/9.4 cm^2, in triplicate in basal medium, and grown for 2–3 days at 37° C. in 5% CO2. They were treated with dimethylsulfoxide (DMSO, 25 μM daily for 3 days), sodium butyrate (0.5 or 1.0 mM), phenylacetate (pH 7.0, 5 or 10 mM) or 5-azacytidine (0.5 or 1.0 μM, in 25 μM DMSO, daily for 3 days) until control cells were 80% confluent (3–4 days), then changed to fresh basal medium and grown for an additional 24 hrs.
# (§2) Total RNA and genomic DNA from: normal human thyroid, thyroid tumors, and cell lines (treated with agents described above), were isolated by the acid-guanidinium-phenol-chloroform method (21). All surgical samples were snap-frozen and stored at −80° C. until processed by homogenization in Trizol reagent (Life Technologies, Gaithersburg, Md.) while still frozen. Complementary DNA (cDNA) was synthesized from 1.0 μg of total RNA using MMLV reverse transcriptase (RT) with random-hexamer primers (Clontech, Palo Alto, Calif.). Each 50 μL polymerase chain reaction (PCR) vessel contained: 60 mM Tris HCl, pH 9.0, 15 mM ammonium sulfate, 3.5 mM MgCl2 (1.5 mM for hTTF-1), 250 μM dNTPs (Boehringer-Mannheim, Indianapolis, Ind.), 0.2 μM each primer pair, 1 U AmpliTaq DNA polymerase (Perkin-Elmer, Norwalk, Conn.), 0.2 μg TaqStart Antibody (Clontech) and 3% cDNA. β-actin amplification (primers, Stratagene, La Jolla, Calif.) confirmed cDNA integrity, purity, and template equivalence for semiquantification. PCR primers (upstream 5′ to 3′/downstream 5′ to 3′, in all cases) used for amplification were, for hNIS (5), CTGCCCCAGACCAGTACAT GCC (SEQ ID NO. 1)/[…] (SEQ ID NO. 2) (to amplify a coding region spanning four introns (4) yielding a 303 bp product from cDNA) and for Pax-8, […] (SEQ ID NO. 3)/[…] (SEQ ID NO. 4)((22) to amplify a 329 bp product). Amplification conditions for hNIS and Pax-8 were: denaturation (95° C.×5 min); 40 cycles of 20 sec at 95° C. and 60 sec at 68° C.; followed by extension at 72° C. for 3 min. The hTTF-1 product was amplified with intron spanning primers, […] (SEQ ID NO. 5)/[…] (SEQ ID NO. 6), which amplify a 263 bp fragment. The conditions were: 95° C. for 5 min; 45 cycles of 95° C. for 20 sec, 60° C. for 60 sec, and 72° C. for 30 sec; followed by extension at 72° C. for 3 min. The RT-PCR products were resolved on 2% agarose gels and visualized by ethidium bromide staining.
# [1] = system: NPA'87 cells (papillary carcinoma); assay: Iodide uptake assay (specific 125I uptake), NPA'87; type: cell-based, human; details: for Specific ^125I Uptake: NPA'87
# Experimental: as §1
# (§3) Cell lines, treated with differentiation agents and control cultures, were washed with 2 mL of buffer containing: 10 mM HEPES ([…]), 5.5 mM glucose, 5.4 mM KCl, 1.3 mM CaCl2, 0.4 mM Na2HPO4, 0.44 mM KH2PO4, and either 137 mM NaCl (Buffer A) or 100 mM choline chloride (Buffer B). After a 60 min incubation in the same buffer supplemented with Na(^125I) (1.0 μCi/2 mL) and 1.0 μM NaI, cells were washed once with Buffer A, lysed with 0.1 M NaOH and gamma counted (5). A parallel set of dishes, similarly plated and treated, were used for normalization of uptake activity, using 3-(4,5-dimethylthiazol-2-yl)-2,5-diphenyltetrazolium bromide (MTT) assay (25) as an index of cell viability. Gamma counts of cells incubated in Buffer B were subtracted from counts of cells incubated in Buffer A, under corresponding conditions, to account for non-specific binding of radioiodide.
# [2] = system: KAK-1 cells (benign follicular adenoma); assay: Iodide uptake assay (specific 125I uptake), KAK-1; type: cell-based, human; details: for Specific ^125I Uptake: KAK-1
# Experimental: as §1, §3
# [3] = system: KAT-10 cells (papillary carcinoma); assay: Iodide uptake assay (specific 125I uptake), KAT-10; type: cell-based, human
# Experimental: as §1, §3
# TTF-1 mRNA = TTF-1 mRNA expression by RT-PCR in treated cell lines; type: cell-based, human; details: for induction of TTF-1 mRNA expression: KAT-5 and KAT-10 (basal TTF-1 undetectable)
# Experimental: as §1, §2
# Pax-8 mRNA = Pax-8 mRNA expression by RT-PCR in treated cell lines; type: cell-based, human
# Experimental: as §1, §2
# [4] = KAK-1, high: AzaC 1.0 μM, NaB 1.0 mM, PhAc 10 mM
# [5] = KAK-1, low: AzaC 0.5 μM, NaB 0.5 mM, PhAc 5.0 mM
# [6] = KAT-5, high: AzaC 1.0 μM, NaB 1.0 mM, PhAc 10 mM
# [7] = KAT-5, low: AzaC 0.5 μM, NaB 0.5 mM, PhAc 5.0 mM
# [8] = KAT-10, low: AzaC 0.5 μM, NaB 0.5 mM, PhAc 5.0 mM
# [9] = NPA'87, high: AzaC 1.0 μM, NaB 1.0 mM, PhAc 10 mM
# [10] = NPA'87, low: AzaC 0.5 μM, NaB 0.5 mM, PhAc 5.0 mM
# [11] = high: AzaC 1.0 μM, NaB 1.0 mM, PhAc 10 mM
# [12] = low: AzaC 0.5 μM, NaB 0.5 mM, PhAc 5.0 mM
# [13] = NPA'87, high: AzaC 1.0 μM, NaB 1.0 mM
# [14] = KAT-5, high: AzaC 1.0 μM, PhAc 10 mM
smiles,measurement,setting,value
"CCCC(=O)[O-].[Na+] [NaB, sodium butyrate]",hNIS mRNA,hNIS mRNA; [4],−
same,hNIS mRNA,hNIS mRNA; [5],−
same,hNIS mRNA,hNIS mRNA; [6],−
same,hNIS mRNA,hNIS mRNA; [7],−
same,hNIS mRNA,"hNIS mRNA; KAT-10, high: NaB 1.0 mM, PhAc 10 mM",+
same,hNIS mRNA,hNIS mRNA; [8],−
same,hNIS mRNA expression despite treatment,hNIS mRNA,failed to express hNIS mRNA
same,hNIS mRNA,hNIS mRNA; [9],+
same,hNIS mRNA,hNIS mRNA; [10],−
same,re-expression of hNIS mRNA,hNIS mRNA; NPA'87 and KAT-10,re-expression of hNIS mRNA
same,Specific ^125I Uptake,[1]; [11],−
same,Specific ^125I Uptake,[1]; [12],−
same,iodide uptake activity,"[1]; NPA'87 cells, 1.0 mM sodium butyrate",slightly increased
same,Specific ^125I Uptake,[2]; [11],−
same,Specific ^125I Uptake,[2]; [12],−
same,Specific ^125I Uptake,"[3]; high: NaB 1.0 mM, PhAc 10 mM",−
same,Specific ^125I Uptake,[3]; [12],−
same,induction of TTF-1 mRNA expression,TTF-1 mRNA,did not have such an effect in either of the cell lines
same,TTF-1 mRNA,"TTF-1 mRNA; KAT-10, high: NaB 1.0 mM",−
same,TTF-1 mRNA,TTF-1 mRNA; [13],+
same,Pax-8 mRNA,"Pax-8 mRNA; KAT-10, high: NaB 1.0 mM",+
same,Pax-8 mRNA,Pax-8 mRNA; [13],+
"Nc1ncn([C@@H]2O[C@H](CO)[C@@H](O)[C@H]2O)c(=O)n1 [AzaC, 5-azacytidine]",hNIS mRNA,hNIS mRNA; [4],+
same,hNIS mRNA,hNIS mRNA; [5],+
same,"re-expression of hNIS mRNA, comparison of the two concentrations","hNIS mRNA; KAK-1 cells, 0.5 μM vs 1.0 μM 5-azacytidine",comparable
same,hNIS mRNA,hNIS mRNA; [6],+
same,hNIS mRNA,hNIS mRNA; [7],−
same,hNIS mRNA,hNIS mRNA; [8],+
same,hNIS mRNA expression despite treatment,hNIS mRNA,failed to express hNIS mRNA
same,hNIS mRNA,hNIS mRNA; [9],+
same,hNIS mRNA,hNIS mRNA; [10],−
same,Specific ^125I Uptake,[1]; [11],+
same,Specific ^125I Uptake,[1]; [12],−
same,increased iodide uptake,"[1]; NPA'87 cells, 1.0 M 5-azacytidine (so in the source)",over 15 fold
same,Specific ^125I Uptake,[2]; [11],+
same,Specific ^125I Uptake,[2]; [12],−
same,enhancement of ^125I uptake,"[2]; KAK-1 cells, 0.5 μM 5-azacytidine",no enhancement of uptake
same,increase in ^125I uptake as compared with untreated cells,"[2]; KAK-1 cells, 1.0 μM 5-azacytidine",greater than two-fold
same,Specific ^125I Uptake,[3]; [12],−
same,TTF-1 mRNA,"TTF-1 mRNA; KAK-1, high: AzaC 1.0 μM",+
same,TTF-1 mRNA,"TTF-1 mRNA; KAK-1, low: AzaC 0.5 μM",+
same,TTF-1 mRNA,TTF-1 mRNA; [14],+
same,induction of TTF-1 mRNA expression,TTF-1 mRNA,induced
same,TTF-1 mRNA,"TTF-1 mRNA; KAT-10, low: AzaC 0.5 μM",+
same,TTF-1 mRNA,TTF-1 mRNA; [13],+
same,Pax-8 mRNA,"Pax-8 mRNA; KAK-1, high: AzaC 1.0 μM",+
same,Pax-8 mRNA,"Pax-8 mRNA; KAK-1, low: AzaC 0.5 μM",+
same,Pax-8 mRNA,Pax-8 mRNA; [14],+
same,Pax-8 mRNA,"Pax-8 mRNA; KAT-10, low: AzaC 0.5 μM",+
same,Pax-8 mRNA,Pax-8 mRNA; [13],+
